From PubChem BioAssay AID1919013 (Molecular Pharmacology Branch, DTP, NCI, 2023)

Test system: LG0703-F498-PDC complex spheroid growth
Assay: Anticancer human tumor LG0703-F498-PDC patient-derived lung adenocarcinoma cell line growth inhibition [AhR]
Details: for IC50: curve of first compound; for viability, T/C: stronger effect = lower value
How it was run: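 Spheroids combined tumor cells with HUVEC endothelial cells and human MSCs as stroma. AhR antagonists were paired with standard or investigational drugs, each dosed in half-log steps down from near clinical Cmax, or from 10 microM where Cmax was unknown.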

[1] = second compound 0.1 µM, first compound 0.00949 µM
[2] = second compound 0.1 µM, first compound 0.03 µM
[3] = second compound 0.1 µM, first compound 0.0949 µM
[4] = second compound 0.1 µM, first compound 0.3 µM
[5] = second compound 0.316 µM, first compound 0.00949 µM
[6] = second compound 0.316 µM, first compound 0.03 µM
[7] = second compound 0.316 µM, first compound 0.0949 µM
[8] = second compound 0.316 µM, first compound 0.3 µM
[9] = second compound 1 µM, first compound 0.00949 µM
[10] = second compound 1 µM, first compound 0.03 µM
[11] = second compound 1 µM, first compound 0.0949 µM
[12] = second compound 1 µM, first compound 0.3 µM
[13] = second compound 3.16 µM, first compound 0.00949 µM
[14] = second compound 3.16 µM, first compound 0.03 µM
[15] = second compound 3.16 µM, first compound 0.0949 µM
[16] = second compound 3.16 µM, first compound 0.3 µM
[17] = second compound 10 µM, first compound 0.00949 µM
[18] = second compound 10 µM, first compound 0.03 µM
[19] = second compound 10 µM, first compound 0.0949 µM
[20] = second compound 10 µM, first compound 0.3 µM
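Also: luminescence taken as a proxy for viable cell amount.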
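For viability, T/C in this document: percent of DMSO vehicle control where 100% means growth equal to vehicle.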

| Structure (SMILES) | IC50 (second compound 0.1 µM) [nM] | IC50 (second compound 0.316 µM) [nM] | IC50 (second compound 1 µM) [nM] | IC50 (second compound 3.16 µM) [nM] | IC50 (second compound 10 µM) [nM] | viability, T/C [1] [%] | viability, T/C [2] [%] | viability, T/C [3] [%] | viability, T/C [4] [%] | viability, T/C [5] [%] | viability, T/C [6] [%] | viability, T/C [7] [%] | viability, T/C [8] [%] | viability, T/C [9] [%] | viability, T/C [10] [%] | viability, T/C [11] [%] | viability, T/C [12] [%] | viability, T/C [13] [%] | viability, T/C [14] [%] | viability, T/C [15] [%] | other results |
| --- | --- | --- | --- | --- | --- | --- | --- | --- | --- | --- | --- | --- | --- | --- | --- | --- | --- | --- | --- | --- | --- |
| O=C(C=Cn1cnc(-c2cc(C(F)(F)F)cc(C(F)(F)F)c2)n1)NNc1cnccn1 + Cc1ccccc1N=Nc1ccc(NC(=O)c2ccnn2C)c(C)c1 | 76.8 | 70.8 | 132 | 85.7 | 119 | 76.4 | 73 | 44.9 | 37.3 | 85.4 | 64.2 | 45.5 | 39.7 | 83 | 72 | 54 | 39.8 | 71.1 | 63.6 | 47 | viability, T/C (second compound 0.1 µM, first compound 0.949 µM): 43.8%; viability, T/C (second compound 0.1 µM, first compound 3 µM): 39.3%; viability, T/C (second compound 0.316 µM, first compound 0.949 µM): 46.6%; viability, T/C (second compound 0.316 µM, first compound 3 µM): 39.4%; viability, T/C (second compound 1 µM, first compound 0.949 µM): 40%; viability, T/C (second compound 1 µM, first compound 3 µM): 34.8%; viability, T/C [16]: 44.6%; viability, T/C (second compound 3.16 µM, first compound 0.949 µM): 35.3%; viability, T/C (second compound 3.16 µM, first compound 3 µM): 39.9%; viability, T/C [17]: 70%; viability, T/C [18]: 61.3%; viability, T/C [19]: 50.6%; viability, T/C [20]: 45.8%; viability, T/C (second compound 10 µM, first compound 0.949 µM): 39.2%; viability, T/C (second compound 10 µM, first compound 3 µM): 39.7% |
| CC(C)CC(NC(=O)C(Cc1ccccc1)NC(=O)c1cnccn1)B(O)O (stereo not given) + Cc1cncc(-c2nc(NCCc3c[nH]c4ccccc34)c3ncn(C(C)C)c3n2)c1 | 4.06 | 4.36 | 3.62 | 1.12 | < 0.949 | 6.78 | 0.57 | 0.07 | 0.18 | 5.68 | 0.52 | 0.13 | 0.41 | 4.01 | 0.74 | 0.04 | 0.35 | 1.21 | 0.06 | 0.5 | viability, T/C (second compound 0.1 µM, first compound 0.000949 µM): 90.8%; viability, T/C (second compound 0.1 µM, first compound 0.003 µM): 65.4%; viability, T/C (second compound 0.316 µM, first compound 0.000949 µM): 101%; viability, T/C (second compound 0.316 µM, first compound 0.003 µM): 71.3%; viability, T/C (second compound 1 µM, first compound 0.000949 µM): 115%; viability, T/C (second compound 1 µM, first compound 0.003 µM): 58.9%; viability, T/C (second compound 3.16 µM, first compound 0.000949 µM): 52.8%; viability, T/C (second compound 3.16 µM, first compound 0.003 µM): 33.7%; viability, T/C [16]: 0.67%; viability, T/C (second compound 10 µM, first compound 0.000949 µM): 1.32%; viability, T/C (second compound 10 µM, first compound 0.003 µM): 0.98%; viability, T/C [17]: 0.8%; viability, T/C [18]: 0.13%; viability, T/C [19]: 1.1%; viability, T/C [20]: 1.18% |
